By melting point is commonly meant the temperature, or range, at which the solid turns liquid.

In patent US7071180B2, “Certain arylaliphatic and heteroaryl-aliphatic piperazinyl pyrazines and their use in the treatment of serotonin-related diseases” (Biovitrum AB, priority 1999, dated 2006) one finds melting point data, which are given here for 29 compounds.

Counter-ions that a name gives are not always drawn.

On to `N#Cc1ccccc1OCCOc1nccnc1N1CCNCC1` (as salt: maleate) [Example 96, 2-(2-Cyanophenoxy)ethyl 3-(1-piperazinyl)-2-pyrazinyl ether], for which the melting point was 165 to 166 °C.
As for `Fc1cccc(OCCOc2nccnc2N2CCNCC2)c1` (as salt: maleate) [Example 101, 2-[2-(3-Fluorophenoxy)ethoxy]-3-(1-piperazinyl)pyrazine], the melting point lay within 141 to 143 °C.
In turn, `OCc1cccc(OCCOc2nccnc2N2CCNCC2)c1` (as salt: maleate) [Example 108, [3-(2-{[3-(1-piperazinyl)-2-pyrazinyl]oxy}ethoxy)phenyl]methanol] had a melting point of 123.2 to 123.5 °C.
For the compound `COCc1cccc(OCCOc2nccnc2N2CCNCC2)c1` (as salt: maleate) [Example 109, 2-{2-[3-(Methoxymethyl)phenoxy]ethoxy}-3-(1-piperazinyl)pyrazine], the melting point was 114 to 115 °C.
`NC(=O)c1cccc(OCCOc2nccnc2N2CCNCC2)c1` (as salt: maleate) [Example 110, 3-(2-{[3-(1-piperazinyl)-2-pyrazinyl]oxy}ethoxy)benzamide] displayed a melting point of 134 to 137 °C.
Regarding `c1ccc(Nc2ccc(OCCOc3nccnc3N3CCNCC3)cc2)cc1` (as salt: maleate) [Example 111, N-Phenyl-4-(2-{[3-(1-piperazinyl)-2-pyrazinyl]oxy}ethoxy)aniline], the melting point was 132 to 133 °C.
`CC(=O)Nc1cccc(OCCOc2nccnc2N2CCNCC2)c1` (as salt: maleate) [Example 119, 2-[2-(3-Acetamidophenoxy)ethoxy]-3-(1-piperazinyl)pyrazine] yielded a melting point of 154 to 155 °C.
`OCCOc1ccc(OCCOc2nccnc2N2CCNCC2)cc1` (as salt: maleate) [Example 120, 2-[4-(2-{[3-(1-piperazinyl)-2-pyrazinyl]oxy}ethoxy)phenoxy]ethanol]: the melting point fell in the range of 127 to 129 °C.
Regarding `c1cncc(CCCOc2nccnc2N2CCNCC2)c1` (as salt: maleate) [Example 126, 2-(1-piperazinyl)-3-[3-(3-pyridinyl)propoxy]pyrazine], the melting point fell in the range of 128 to 130 °C.
In turn, `c1cc(CCCOc2nccnc2N2CCNCC2)ccn1` (as salt: maleate) [Example 127, 2-(1-piperazinyl)-3-[3-(4-pyridinyl)propoxy]pyrazine] came in with a melting point of 90 to 91 °C.
Under `Cc1cccc(CCCOc2nccnc2N2CCNCC2)n1` (as salt: maleate) [Example 128, 2-[3-(6-Methyl-2-pyridinyl)propoxy]-3-(1-piperazinyl)pyrazine] stands 134 to 136 °C.
Consider `c1cc(OCCOc2nccnc2N2CCNCC2)c2ccncc2c1` (as salt: maleate) [Example 134, 2-(5-Isoquinolinyloxy)ethyl 3-(1-piperazinyl)-2-pyrazinyl ether], for which the melting point is 178 to 180.5 °C.
Under `c1cc(OCCOc2nccnc2N2CCNCC2)c2cccnc2c1` (as salt: maleate) [Example 135, 2-(5-Quinolinyloxy)ethyl 3-(1-piperazinyl)-2-pyrazinyl ether] stands 132 to 135 °C; under `c1cnc2ccc(OCCOc3nccnc3N3CCNCC3)cc2c1` (as salt: maleate) [Example 136, 2-(6-Quinolinyloxy)ethyl 3-(1-piperazinyl)-2-pyrazinyl ether], 167 to 169 °C; under `c1cnc2cc(OCCOc3nccnc3N3CCNCC3)ccc2c1` (as salt: maleate) [Example 137, 2-(7-Quinolinyloxy)ethyl 3-(1-piperazinyl)-2-pyrazinyl ether], 156 to 158 °C.
In turn, `COc1ccc(C)cc1OCCOc1nccnc1N1CCNCC1` (as salt: maleate) [Example 144, 2-[2-(2-Methoxy-5-methylphenoxy)ethoxy]-3-(1-piperazinyl)pyrazine] showed a melting point of 148 to 149 °C.
For the compound `Nc1cccc2ccc(OCCOc3nccnc3N3CCNCC3)cc12` (as salt: maleate) [Example 145, 7-(2-{[3-(1-piperazinyl)-2-pyrazinyl]oxy}ethoxy)-1-naphthylamine], the melting point is 120 °C (dec.).
In turn, `c1ccc(OCCOc2nccnc2N2CCNCC2)nc1` (as salt: maleate) [Example 152, 2-(2-Pyridyloxy)ethyl 3-(1-piperazinyl)-2-pyrazinyl ether] returned a melting point of 130 to 132 °C.
As to `c1ccc2c(OCCOc3nccnc3N3CCNCC3)csc2c1` (as salt: maleate) [Example 156, 2-[2-(1-Benzothien-3-yloxy)ethoxy]-3-(1-piperazinyl)pyrazine], the melting point fell in the range of 147 to 149 °C.
`CC1(C)Cc2cccc(OCCOc3nccnc3N3CCNCC3)c2O1` (as salt: maleate) [Example 158, 2-(2,3-Dihydro-2,2-dimethyl-7-benzofuranyloxy)ethyl 3-(1-piperazinyl)-2-pyrazinyl ether] showed a melting point of 156 to 157 °C.
Consider `c1cc(OCCOc2nccnc2N2CCNCC2)c2ncoc2c1` (as salt: maleate) [Example 159, 2-(1,3-Benzoxazol-4-yloxy)ethyl 3-(1-piperazinyl)-2-pyrazinyl ether], for which the melting point lay in the range of 191 to 193 °C.
Turning to `c1cncc(OCCOc2nc3ccccc3nc2N2CCNCC2)c1` (as salt: maleate) [Example 162, 2-[2-(3-Pyridinyloxy)ethoxy]-3-(1-piperazinyl)quinoxaline], the melting point lay in the range of 137 to 139 °C.
Take `Fc1cc2nc(OCCOc3cccnc3)c(N3CCNCC3)nc2cc1F` (as salt: maleate) [Example 163, 2-[2-(3-Pyridinyloxy)ethoxy]-3-(1-piperazinyl)-6,7-difluoroquinoxaline]: the melting point fell in the range of 110 to 115 °C.
Compound `Clc1cc2nc(OCCOc3cccnc3)c(N3CCNCC3)nc2cc1Cl` (as salt: maleate) [Example 164, 2-[2-(3-Pyridinyloxy)ethoxy]-3-(1-piperazinyl)-6,7-dichloroquinoxaline] yielded a melting point of 187 to 189 °C.
In turn, `c1cncc(OCCOc2nc3cscc3nc2N2CCNCC2)c1` (as salt: maleate) [Example 165, 2-[2-(3-Pyridinyloxy)ethoxy]3-(1-piperazinyl)thieno[3,4-b]pyrazine] registered a melting point of 152 to 156 °C.
`c1cc2c(c(OCCOc3nccnc3N3CCNCC3)c1)OCC2` (as salt: maleate) [Example 186, 2-(2,3-Dihydrobenzofuran-7-yloxy)ethyl 3-(1-piperazinyl)-2-pyrazinyl ether] came in with a melting point of 149 to 154 °C.
`Clc1ccc(OCCOc2nccnc2N2CCNCC2)cn1` (as salt: maleate) [Example 203, 2-{2-[(6-Chloro-3-pyridinyl)oxy]ethoxy}-3-(1-piperazinyl)pyrazine] yielded a melting point of 145.9 to 146.3 °C.
Regarding `COc1ccc(OCCOc2nccnc2N2CCNCC2)cn1` (as salt: maleate) [Example 204, 2-{2-[(6-Methoxy-3-pyridinyl)oxy]ethoxy}-3-(1-piperazinyl)pyrazine], the melting point fell in the range of 151.8 to 152.6 °C.
`c1cncc(OCCOc2nsnc2N2CCNCC2)c1` (as salt: maleate) [Example 209, 1-{4-[2-(3-Pyridinyloxy)ethoxy]-1,2,5-thiadiazol-3-yl}piperazine]: the melting point was 116 to 118 °C.
